Test results published in article PMC2852069 (Indian Journal of Pharmaceutical Sciences, 2008).
≈ marks a conversion by molar mass, not a printed value.

What was measured:
SARS-CoV = assay: microbe, parasite or virus in culture; type: cell-based, Severe Acute Respiratory Syndrome corona virus (SARS-CoV); details: for EC50: Severe acute respiratory syndrome coronavirus, Vero C1008, 72 h, read-out: EC50 (50% effective concentration required to reduce virus-induced cytopathicity by 50%)
[1] = test system: HCV RNA (HCV replicon in Huh 5-2 cells); assay: microbe, parasite or virus in culture; type: cell-based, Hepatitis C Virus; details: for EC50: Hepatitis C virus, Huh-5-2, 72 h, read-out: EC50 HCV RNA
Huh 5-2 cells = details: human
in vitro [2] = details: African green monkey
in vitro [3] = details: human, CC50 Cell growth

SMILES	Maximum protection (%) (at 125 μg/ml) (SARS-CoV)	EC50 (SARS-CoV)	EC50 HCV RNA [1]	EC50 [1]	CC50 Cell growth (Huh 5-2 cells)	CC50 (in vitro [2])	CC50 (in vitro [3])	concentration without toxicity (Huh 5-2 cells)
Cc1cc(C)nc(NS(=O)(=O)c2ccc(/N=C3\C(=O)Nc4ccc(Br)cc43)cc2)n1 [SPIII-5Br]	2%	> 125 µg/mL	17 µg/mL (≈ 35 µM)	19 µg/mL (≈ 39.1 µM)	>50 µg/mL	> 125 µg/mL	42 µg/mL (≈ 86.4 µM)	
Cc1cc(C)nc(NS(=O)(=O)c2ccc(/N=C3\C(=O)Nc4ccc(Cl)cc43)cc2)n1 [SPIII-5Cl]	10%	> 125 µg/mL		> 50 µg/mL		> 125 µg/mL	> 50 µg/mL	
Cc1cc(C)nc(NS(=O)(=O)c2ccc(/N=C3\C(=O)Nc4ccc(F)cc43)cc2)n1 [SPIII-5F]	45%	> 125 µg/mL		6 µg/mL (≈ 14.1 µM)		> 125 µg/mL	42 µg/mL (≈ 98.7 µM)	up to 42 μg/ml
Cc1cc(C)nc(NS(=O)(=O)c2ccc(/N=C3\C(=O)Nc4ccccc43)cc2)n1 [SPIII-5H, 4-[(1,2-dihydro-2-oxo-3H-indol-3-ylidene)amino]-N(4,6-dimethyl-2-pyrimidiny)benzene sulphonamide]	22%	> 125 µg/mL	19 µg/mL (≈ 46.6 µM)	17 µg/mL (≈ 41.7 µM)	>50 µg/mL	> 125 µg/mL	42 µg/mL (≈ 103 µM)	
Cc1ccc2c(c1)/C(=N/c1ccc(S(=O)(=O)Nc3nc(C)cc(C)n3)cc1)C(=O)N2 [SPIII-5Me]	12%	> 125 µg/mL		> 50 µg/mL		> 125 µg/mL	> 50 µg/mL	
CC(=O)N1C(=O)/C(=N\c2ccc(S(=O)(=O)Nc3nc(C)cc(C)n3)cc2)c2ccccc21 [SPIII-NA]	12%	> 125 µg/mL		> 50 µg/mL		> 125 µg/mL	> 50 µg/mL	
